Results on eight compounds are retold here after patent publication US20180280377A1, “Imidazo[4,5-c]quinolin-2-one Compounds and Their Use in Treating Cancer” (ASTRAZENECA AB, priority 2015, published 2018).

One assay has as its target PI3Kα (Homo sapiens, UniProt P42336). Put plainly: PI3K cellular potency assay (phospho-Akt T308 in BT474 cells, ELISA). Type of assay: cell-based. To be noted: 2 h, phospho-Akt (T308); Table 2; read-out: Assay c) PI3Kα Cell IC50. As to the method: The following assays were used to measure the effects of the compounds of the present invention: a) ATM cellular potency assay; b) PI3K cellular potency assay; c) mTOR cellular potency assay; d) ATR cellular potency assay. During the description of the assays, generally: • i. […] IC50 values were calculated using a smart fitting model in Genedata.
This assay was used to measure PI3K-α inhibition in cells. PDK1 was identified as the upstream activation loop kinase of protein kinase B (Akt1), which is essential for the activation of PKB. Activation of the lipid kinase phosphoinositide 3 kinase (PI3K) is critical for the activation of PKB by PDK1.
Following ligand stimulation of receptor tyrosine kinases, PI3K is activated, which converts PIP2 to PIP3, which is bound by the PH domain of PDK1 resulting in recruitment of PDK1 to the plasma membrane where it phosphorylates AKT at Thr308 in the activation loop.
The aim of this cell-based mode of action assay is to identify compounds that inhibit PDK activity or recruitment of PDK1 to membrane by inhibiting PI3K activity. Phosphorylation of phospho-Akt (T308) in BT474c cells following treatment with compounds for 2 h is a direct measure of PDK1 and indirect measure of PI3K activity.
The following morning compounds in 100% DMSO were added to assay plates by acoustic dispensing.
Plates were incubated over night at 4° C. The next day the plates were washed with PBS buffer containing 0.05% Tween 20 and further incubated with a mouse monoclonal anti-phospho AKT T308 for 2 h. Plates were washed again as above before addition of a horse anti-mouse-HRP conjugated secondary antibody. […] The developed fluorescent product was stopped after 60 minutes by addition of Stop solution to the wells.

Another assay deals with T1, ATR (Homo sapiens, UniProt Q13535).
T1 construct: endogenous in cells; host or cells: HT29 cells (ECACC #85061109)
T1 sequence (Q13535 whole entry): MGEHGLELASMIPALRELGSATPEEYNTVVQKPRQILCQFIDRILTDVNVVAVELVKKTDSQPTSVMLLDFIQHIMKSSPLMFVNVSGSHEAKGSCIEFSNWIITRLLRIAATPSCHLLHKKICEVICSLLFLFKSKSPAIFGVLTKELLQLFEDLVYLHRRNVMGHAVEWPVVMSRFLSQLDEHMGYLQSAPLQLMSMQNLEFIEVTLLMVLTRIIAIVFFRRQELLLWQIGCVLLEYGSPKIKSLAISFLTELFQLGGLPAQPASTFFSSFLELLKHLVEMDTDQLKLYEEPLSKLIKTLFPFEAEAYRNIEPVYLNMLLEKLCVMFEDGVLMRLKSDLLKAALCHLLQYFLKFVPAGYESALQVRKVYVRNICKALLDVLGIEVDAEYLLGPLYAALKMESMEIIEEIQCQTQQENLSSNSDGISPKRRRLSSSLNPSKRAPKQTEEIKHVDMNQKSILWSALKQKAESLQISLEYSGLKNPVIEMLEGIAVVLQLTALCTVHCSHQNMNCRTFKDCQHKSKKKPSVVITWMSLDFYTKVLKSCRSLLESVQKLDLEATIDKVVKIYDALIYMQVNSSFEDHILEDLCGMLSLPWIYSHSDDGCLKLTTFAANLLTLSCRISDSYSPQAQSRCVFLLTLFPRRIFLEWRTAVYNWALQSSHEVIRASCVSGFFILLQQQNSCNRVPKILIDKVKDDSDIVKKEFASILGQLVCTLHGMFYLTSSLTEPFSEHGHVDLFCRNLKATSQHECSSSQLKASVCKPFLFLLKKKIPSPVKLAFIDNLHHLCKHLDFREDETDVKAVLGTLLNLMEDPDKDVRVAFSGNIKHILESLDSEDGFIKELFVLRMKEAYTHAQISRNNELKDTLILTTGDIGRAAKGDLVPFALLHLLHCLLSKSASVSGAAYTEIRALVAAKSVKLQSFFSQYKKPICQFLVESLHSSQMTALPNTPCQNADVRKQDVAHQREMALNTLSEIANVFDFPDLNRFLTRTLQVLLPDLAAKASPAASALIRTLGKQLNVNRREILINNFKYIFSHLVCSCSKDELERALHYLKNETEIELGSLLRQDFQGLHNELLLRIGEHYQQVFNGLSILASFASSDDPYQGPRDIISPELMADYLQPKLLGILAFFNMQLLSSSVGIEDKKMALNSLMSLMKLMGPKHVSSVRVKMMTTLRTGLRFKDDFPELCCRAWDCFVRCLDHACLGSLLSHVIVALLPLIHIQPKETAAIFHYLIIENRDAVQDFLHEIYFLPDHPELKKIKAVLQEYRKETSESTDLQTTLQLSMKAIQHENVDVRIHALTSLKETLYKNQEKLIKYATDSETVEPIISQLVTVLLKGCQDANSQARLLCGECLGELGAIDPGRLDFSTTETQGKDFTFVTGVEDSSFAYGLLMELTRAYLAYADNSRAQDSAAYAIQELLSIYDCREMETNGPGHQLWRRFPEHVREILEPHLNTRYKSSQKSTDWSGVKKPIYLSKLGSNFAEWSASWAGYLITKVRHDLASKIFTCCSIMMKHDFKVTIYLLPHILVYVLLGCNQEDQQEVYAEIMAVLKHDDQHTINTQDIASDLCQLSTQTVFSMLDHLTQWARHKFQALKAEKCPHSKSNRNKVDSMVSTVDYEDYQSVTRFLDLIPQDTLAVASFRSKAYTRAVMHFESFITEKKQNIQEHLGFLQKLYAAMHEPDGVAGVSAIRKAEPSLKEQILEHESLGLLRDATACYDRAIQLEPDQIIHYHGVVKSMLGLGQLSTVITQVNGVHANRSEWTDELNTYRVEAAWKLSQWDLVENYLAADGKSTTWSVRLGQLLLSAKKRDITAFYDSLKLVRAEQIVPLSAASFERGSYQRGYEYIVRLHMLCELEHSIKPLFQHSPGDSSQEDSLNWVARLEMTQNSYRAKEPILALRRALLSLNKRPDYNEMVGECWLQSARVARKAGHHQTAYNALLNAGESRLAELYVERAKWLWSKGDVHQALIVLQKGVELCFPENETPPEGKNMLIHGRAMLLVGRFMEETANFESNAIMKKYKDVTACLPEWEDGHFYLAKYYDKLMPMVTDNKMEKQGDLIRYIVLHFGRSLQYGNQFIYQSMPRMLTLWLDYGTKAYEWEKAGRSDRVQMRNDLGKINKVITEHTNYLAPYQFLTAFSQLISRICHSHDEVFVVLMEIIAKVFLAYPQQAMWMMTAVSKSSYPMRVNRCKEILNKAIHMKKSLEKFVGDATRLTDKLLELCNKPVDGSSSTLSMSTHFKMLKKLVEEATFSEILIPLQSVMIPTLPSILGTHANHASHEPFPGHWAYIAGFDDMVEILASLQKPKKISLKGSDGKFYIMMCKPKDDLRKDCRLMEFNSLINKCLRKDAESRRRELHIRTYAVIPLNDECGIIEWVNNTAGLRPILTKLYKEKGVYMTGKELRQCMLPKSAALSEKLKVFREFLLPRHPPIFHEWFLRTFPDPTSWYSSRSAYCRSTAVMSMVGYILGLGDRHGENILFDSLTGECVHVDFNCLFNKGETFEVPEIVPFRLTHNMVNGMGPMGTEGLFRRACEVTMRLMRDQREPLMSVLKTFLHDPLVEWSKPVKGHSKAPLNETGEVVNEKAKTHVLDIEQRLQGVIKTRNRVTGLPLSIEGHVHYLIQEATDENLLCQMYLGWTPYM
T1 sequence (Q8WXE1 whole entry partner): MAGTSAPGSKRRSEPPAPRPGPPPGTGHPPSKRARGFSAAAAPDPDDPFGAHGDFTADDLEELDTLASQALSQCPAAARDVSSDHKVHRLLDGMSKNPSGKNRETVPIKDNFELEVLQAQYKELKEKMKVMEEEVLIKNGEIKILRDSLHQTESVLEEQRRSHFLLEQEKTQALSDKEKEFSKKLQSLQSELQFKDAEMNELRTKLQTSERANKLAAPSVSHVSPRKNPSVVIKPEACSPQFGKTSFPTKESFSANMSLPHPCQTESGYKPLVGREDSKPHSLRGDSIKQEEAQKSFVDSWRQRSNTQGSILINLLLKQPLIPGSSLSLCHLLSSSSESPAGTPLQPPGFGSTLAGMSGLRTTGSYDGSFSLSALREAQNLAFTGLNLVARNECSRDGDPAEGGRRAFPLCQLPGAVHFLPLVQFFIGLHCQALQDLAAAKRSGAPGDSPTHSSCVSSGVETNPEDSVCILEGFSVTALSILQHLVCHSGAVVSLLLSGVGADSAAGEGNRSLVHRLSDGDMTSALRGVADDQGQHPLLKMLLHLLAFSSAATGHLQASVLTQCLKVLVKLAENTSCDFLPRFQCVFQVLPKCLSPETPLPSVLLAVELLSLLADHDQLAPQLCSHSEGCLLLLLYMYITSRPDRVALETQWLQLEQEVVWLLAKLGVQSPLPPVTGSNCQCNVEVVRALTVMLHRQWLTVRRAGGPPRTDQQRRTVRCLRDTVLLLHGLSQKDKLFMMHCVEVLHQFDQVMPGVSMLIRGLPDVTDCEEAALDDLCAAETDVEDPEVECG
Put plainly: ATR cellular potency assay (pChk1 Ser345 in HT29 cells after 4NQO). Type of assay: cell-based. The settings on record: pChk1 (Ser 345); Table 2; read-out: Assay b) ATR Cell IC50.

pIC50: −log10 of the molar value.

As for `CN(C)[C@@H]1CCN(c2ccc(-c3ccc4ncc5c(c4c3)n([C@@H]3CCCOC3)c(=O)n5C)cn2)C1` [Example 7], the pIC50 at PI3Kα was 5.91; at ATR it was 5.85.
Regarding `CO[C@H]1C[C@@H](n2c(=O)n(C)c3cnc4ccc(-c5ccc(N6CCC(N(C)C)CC6)nc5)cc4c32)C1` [Example 36, 8-[6-[4-(dimethylamino)-1-piperidyl]-3-pyridyl]-1-(cis-3-methoxycyclobutyl)-3-methyl-imidazo[4,5-c]quinolin-2-one], the pIC50 on PI3Kα was 6.01; at ATR, less than 4.52.
The corresponding values for `CN(C)[C@H]1CCN(c2ccc(-c3cc4c(cc3F)ncc3c4n([C@H]4CCCOC4)c(=O)n3C)cn2)C1` [Example 20] are less than 5.00 and less than 4.52.
Take `CNC1CCN(c2ccc(-c3ccc4ncc5c(c4c3)n([C@H]3C[C@@H](OC)C3)c(=O)n5C)cn2)CC1` [Example 60, 1-(cis-3-methoxycyclobutyl)-3-methyl-8-[6-[4-(methylamino)-1-piperidyl]-3-pyridyl]imidazo[4,5-c]quinolin-2-one]: the pIC50 at PI3Kα was 6.53; at ATR it was less than 4.52.
As to `CO[C@H]1C[C@@H](n2c(=O)n(C)c3cnc4cc(F)c(-c5ccc(N6CC(N(C)C)C6)nc5)cc4c32)C1` [Example 31, 8-[6-[3-(dimethylamino)azetidin-1-yl]-3-pyridyl]-7-fluoro-1-(cis-3-methoxycyclobutyl)-3-methyl-imidazo[4,5-c]quinolin-2-one], the pIC50 on PI3Kα and on ATR was less than 4.52 each time.
For the compound `CNC1CCN(c2ccc(-c3cc4c(cc3F)ncc3c4n([C@H]4C[C@@H](OC)C4)c(=O)n3C)cn2)CC1` [Example 57, 7-Fluoro-1-(cis-3-methoxycyclobutyl)-3-methyl-8-[6-[4-(methylamino)-1-piperidyl]-3-pyridyl]imidazo[4,5-c]quinolin-2-one], the negative logarithm of the IC50 (pIC50) at PI3Kα and at ATR was less than 4.52 throughout.
Regarding `CO[C@H]1CC[C@H](n2c(=O)n(C)c3cnc4ccc(-c5ccc(N6CCC(N(C)C)CC6)nc5)cc4c32)C1` (single isomer, unassigned) [Example 32, 8-[6-[4-(dimethylamino)-1-piperidyl]-3-pyridyl]-1-[trans-3-methoxycyclopentyl]-3-methyl-imidazo[4,5-c]quinolin-2-one], the pIC50 on PI3Kα is 6.18; on ATR, less than 4.52.
In the case of `CO[C@H]1C[C@@H](n2c(=O)n(C)c3cnc4cc(F)c(-c5ccc(N6CCC(N(C)C)CC6)nc5)cc4c32)C1` [Example 42, 8-[6-[4-(dimethylamino)-1-piperidyl]-3-pyridyl]-7-fluoro-1-(cis-3-methoxycyclobutyl)-3-methyl-imidazo[4,5-c]quinolin-2-one], the pIC50 on PI3Kα and on ATR was less than 4.52 each time.
